Patent US20190071670A1, “Methods Of Treatment For Alpha-1 Antitrypsin Deficiency” (Arrowhead Pharmaceuticals, Inc., priority 2016, published 2019)
Read-outs that look alike come from different tables or passages of the source.

Tested on: AAT
Conditions: cynomolgus macaque
Method: MLP delivery polymer and Duplex Pair SEQ ID NO: 5/6 (AAT RNAi agent) were made and combined in a pharmaceutically acceptable buffer. On day 1, cynomolgus macaque (Macaca fascicularis) primates (male and female, 3 to 9 kg) were co-injected with MLP delivery polymer and Duplex Pair SEQ ID NO: 5/6 at different dose combinations. The dose combinations injected were: 2.0 mg/kg MLP delivery polymer+4.0 AAT RNAi agent (n=3), 3 mg/kg MLP delivery polymer+1.5 mg/kg AAT RNAi agent (n=2), 3.0 mg/kg MLP delivery polymer+3.0 mg/kg AAT RNAi agent (n=3), 3.0 mg/kg MLP delivery polymer+6.0 mg/kg AAT RNAi agent (n=2), 6.0 mg/kg MLP delivery polymer+12 mg/kg AAT RNAi trigger (n=3) ([…] conversion factor used to determine RNAi agent concentration) and 12 mg/kg MLP delivery polymer+6.0 mg/kg AAT RNAi agent (n=12). For each injection the MLP delivery polymer+AAT RNAi agent (2 ml/kg) was injected into the saphenous vein using a 22 to 25 gauge intravenous catheter. At the indicated time points, blood samples were drawn and analyzed for AAT and toxicity markers. Blood was collected from the femoral vein and primates were fasted overnight before all blood collections. Blood tests for blood urea nitrogen (BUN), alanine transaminase (ALT), aspartate aminotransferase (AST), and creatinine were performed on an automated chemistry analyzer at Meriter laboratories or BASi. AAT levels were determined on a Cobas Integra 400 (Roche Diagnostics) according to the manufacturer's recommendations.
Cynomolgus macaque primates were given five doses of AAT RNAi trigger+MLP delivery polymer at six week intervals. Each dose contained MLP delivery polymer and Duplex Pair SEQ ID NO: 5/6 (AAT RNAi agent) at a 1:2 weight to weight ratio of the MLP to RNAi agent. The first injection was on day 1. The dose combinations injected were: 2.0 mg/kg MLP delivery polymer+4.0 AAT RNAi agent (n=2) and 3 mg/kg MLP delivery polymer+6 mg/kg AAT RNAi agent (n=2). Blood was collected at intervals throughout the study and AAT levels were measured from the serum as described.

**Q.** What does the source list for “Duplex Pair SEQ ID NO: 5/6: double-stranded AAT RNAi agent: modified antisense strand SEQ ID NO: 5 annealed to Chol-TEG sense strand SEQ ID NO: 6 (antisense TGGAACUUGGUGAUGAUAUTT; sense UAUAUAUCAUCACCAAGUUCCAT; Chol-TEG on sense strand; chemical modifications; antisense strand of dsRNA; modified_base 7 /mod_base = “2′-3′ seco corresponding nucleotide”; modified_base 2,4,6,8,10,12,14,16,18 /mod_base = “2′-deoxy-2′-fluoro corresponding nucleoside”; modified_base 3,5,9,11,13,15,17,19 /mod_base = “2′-O-methyl corresponding nucleoside”; modified_base 21 /mod_base = “5′-phosphorothioate corresponding nucleotide”; sense strand of dsRNA; modified_base 2 /mod_base = “2′-hydroxy corresponding nucleoside”; modified_base 4,6,8,10,12,14,16,18,20,22 /mod_base = “2′-deoxy-2′-fluoro corresponding nucleoside”; …)”?
**A.** Percent AAT Knockdown in NHPs (co-injection MLP 3.0 mg/kg + SEQ ID 5/6 1.5 mg/kg on day 1, Day 50): 51%; Percent AAT Knockdown in NHPs (co-injection MLP 3.0 mg/kg + SEQ ID 5/6 1.5 mg/kg on day 1, Pretest): 0%; Percent AAT Knockdown in NHPs (co-injection MLP 3.0 mg/kg + SEQ ID 5/6 3.0 mg/kg on day 1, Day 2): 15%; Percent AAT Knockdown in NHPs (co-injection MLP 3.0 mg/kg + SEQ ID 5/6 3.0 mg/kg on day 1, Day 3): 29%; Percent AAT Knockdown in NHPs (co-injection MLP 3.0 mg/kg + SEQ ID 5/6 3.0 mg/kg on day 1, Day 8): 63%; Percent AAT Knockdown in NHPs (co-injection MLP 3.0 mg/kg + SEQ ID 5/6 3.0 mg/kg on day 1, Day 11): 74%; Percent AAT Knockdown in NHPs (co-injection MLP 3.0 mg/kg + SEQ ID 5/6 3.0 mg/kg on day 1, Day 15): 82%; Percent AAT Knockdown in NHPs (co-injection MLP 3.0 mg/kg + SEQ ID 5/6 3.0 mg/kg on day 1, Day 22): 88%; Percent AAT Knockdown in NHPs (co-injection MLP 3.0 mg/kg + SEQ ID 5/6 3.0 mg/kg on day 1, Day 29): 85%; Percent AAT Knockdown in NHPs (co-injection MLP 3.0 mg/kg + SEQ ID 5/6 3.0 mg/kg on day 1, Pretest): 0%; Percent AAT Knockdown in NHPs (co-injection MLP 3.0 mg/kg + SEQ ID 5/6 6.0 mg/kg on day 1, Day 2): 10%; Percent AAT Knockdown in NHPs (co-injection MLP 3.0 mg/kg + SEQ ID 5/6 6.0 mg/kg on day 1, Day 3): 25%; Percent AAT Knockdown in NHPs (co-injection MLP 3.0 mg/kg + SEQ ID 5/6 6.0 mg/kg on day 1, Day 8): 63%; Percent AAT Knockdown in NHPs (co-injection MLP 3.0 mg/kg + SEQ ID 5/6 6.0 mg/kg on day 1, Day 11): 74%; Percent AAT Knockdown in NHPs (co-injection MLP 3.0 mg/kg + SEQ ID 5/6 6.0 mg/kg on day 1, Day 15): 82%; Percent AAT Knockdown in NHPs (co-injection MLP 3.0 mg/kg + SEQ ID 5/6 6.0 mg/kg on day 1, Pretest): 0%; Percent AAT Knockdown in NHPs (co-injection MLP 6.0 mg/kg + SEQ ID 5/6 12.0 mg/kg on day 1, Day 2): 18%; Percent AAT Knockdown in NHPs (co-injection MLP 6.0 mg/kg + SEQ ID 5/6 12.0 mg/kg on day 1, Day 3): 30%; Percent AAT Knockdown in NHPs (co-injection MLP 6.0 mg/kg + SEQ ID 5/6 12.0 mg/kg on day 1, Day 8): 61%; Percent AAT Knockdown in NHPs (co-injection MLP 6.0 mg/kg + SEQ ID 5/6 12.0 mg/kg on day 1, Pretest): 0%; Percent AAT Knockdown in NHPs (co-injection MLP 12.0 mg/kg + SEQ ID 5/6 6.0 mg/kg on day 1, Day 2): 3%; Percent AAT Knockdown in NHPs (co-injection MLP 12.0 mg/kg + SEQ ID 5/6 6.0 mg/kg on day 1, Day 3): 19%; Percent AAT Knockdown in NHPs (co-injection MLP 12.0 mg/kg + SEQ ID 5/6 6.0 mg/kg on day 1, Day 8): 60%; Percent AAT Knockdown in NHPs (co-injection MLP 12.0 mg/kg + SEQ ID 5/6 6.0 mg/kg on day 1, Day 11): 84%; Percent AAT Knockdown in NHPs (co-injection MLP 12.0 mg/kg + SEQ ID 5/6 6.0 mg/kg on day 1, Day 15): 88%; Percent AAT Knockdown in NHPs (co-injection MLP 12.0 mg/kg + SEQ ID 5/6 6.0 mg/kg on day 1, Day 26): 91%; Percent AAT Knockdown in NHPs (co-injection MLP 12.0 mg/kg + SEQ ID 5/6 6.0 mg/kg on day 1, Day 33): 86%; Percent AAT Knockdown in NHPs (co-injection MLP 12.0 mg/kg + SEQ ID 5/6 6.0 mg/kg on day 1, Day 47): 76%; Percent AAT Knockdown in NHPs (co-injection MLP 12.0 mg/kg + SEQ ID 5/6 6.0 mg/kg on day 1, Pretest): 0%; serum AAT levels reduced (repeat dosing at six week intervals, 3 mg/kg MLP delivery polymer + 6 mg/kg, from two to thirty weeks after the first treatment): 80-90%
